These are literature values, as cited in patent US8450339B2, “Compositions for treatment of common cold” (Takeda Pharma A/S, priority 2001, dated 2013).

Structures can show the parent of a compound that is named as a salt.

The conditions of series [1]: aqueous solution.
For series [2] the following is noted: following administration.

With `Cc1cc(C(C)(C)C)cc(C)c1CC1=NCCN1` [xylometazoline hydrochloride], in series [1], the “Stability optimum, pH” value is reported as 2.

For the molecule `CC(C)[N+]1(C)[C@@H]2CC[C@H]1CC(OC(=O)C(CO)c1ccccc1)C2.[Br-]` (some centres unmarked) [ipratropium bromide], the “Mean duration of effect” value in series [2] is 6 h.
